Article PMC11356571, “The Comparative Metabolism of a Novel Hepatocellular Carcinoma Therapeutic Agent, 2,3-Diamino-N-(4-(benzo[d]thiazol-2-yl)phenyl)propanamide, in Human and Animal Hepatocytes” (Metabolites, 2024)

Key:
CYP2D6 = molecular target: T1, CYP2D6 (Homo sapiens, UniProt P10635); assay: Incubation with human cDNA-expressed CYP2D6; assay type: in vitro ADME; settings: CYP2D6, 30 min at 37 °C with NADPH; ETN101 10 μM or M1 1 μM
T1 construct: purchased Corning Life Sciences (Woburn, MA, USA)
T1 sequence (P10635 whole entry): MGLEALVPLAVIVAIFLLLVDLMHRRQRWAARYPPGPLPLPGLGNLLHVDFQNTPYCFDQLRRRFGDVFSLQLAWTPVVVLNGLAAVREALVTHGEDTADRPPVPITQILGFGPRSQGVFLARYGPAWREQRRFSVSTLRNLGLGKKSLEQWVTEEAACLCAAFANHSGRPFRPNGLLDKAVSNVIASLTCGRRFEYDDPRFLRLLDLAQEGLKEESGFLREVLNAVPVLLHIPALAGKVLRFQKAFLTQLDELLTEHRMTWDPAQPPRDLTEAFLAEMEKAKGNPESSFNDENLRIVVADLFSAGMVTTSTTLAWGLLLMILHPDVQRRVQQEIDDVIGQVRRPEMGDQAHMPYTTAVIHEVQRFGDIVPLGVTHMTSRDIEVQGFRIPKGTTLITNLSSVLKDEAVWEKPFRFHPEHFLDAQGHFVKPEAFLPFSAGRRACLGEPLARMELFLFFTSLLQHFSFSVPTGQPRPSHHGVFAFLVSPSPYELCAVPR
Protocol: ETN101 or M1 was incubated with nine human cDNA-expressed CYP enzymes (1A2, 2A6, 2B6, 2C8, 2C9, 2C19, 2D6, 2E1, and 3A4) to identify the CYPs involved in the metabolism of ETN101. Based on the preliminary study, the incubation conditions were determined as follows: Briefly, reaction mixtures of 50 μL containing ETN101 (final concentration: 10 μM) or M1 (final concentration: 1 μM), and CYPs (final amount: 5 pmol for CYP1A2, 2A6, 2C8, 2C9, 2C19, 2D6, and 3A4; 10 pmol for CYP2B6 and 2E1) were prepared in 0.1 M potassium phosphate buffer. The reaction was initiated by adding 50 μL of NADPH- regenerating system; the mixtures were incubated for 0 min or 30 min at 37 °C in triplicate. Reactions were terminated by the addition of 100 μL of ice-cold acetonitrile containing the IS (camptothecin, 200 ng/mL). Samples were centrifuged at 13,000 rpm for 5 min at 4 °C. An aliquot of 2 μL supernatant was injected in LC–MS/MS system.
For enzyme characterization, an Agilent 6460 triple quadrupole mass spectrometer coupled with a 1260 HPLC system (Agilent Technologies, Santa Clara, CA, USA) and a Kinetex Halo® C18 column (2.7 μm, 2.1 × 50 mm, Advanced Material Technology, Wilmington, DE, USA) were used for chromatographic separation. […] ETN101, M1, and M2 were detected via MRM using ESI in the positive mode. […]

CES1b = molecular target: T2, CES1b (Homo sapiens, UniProt P23141); assay: Incubation with human recombinant CES1b; assay type: in vitro ADME; settings: 60 min at 37 °C, ETN101 10 μM or M1 1 μM
T2 construct: purchased Corning Life Sciences (Woburn, MA, USA)
T2 sequence (P23141 18-567): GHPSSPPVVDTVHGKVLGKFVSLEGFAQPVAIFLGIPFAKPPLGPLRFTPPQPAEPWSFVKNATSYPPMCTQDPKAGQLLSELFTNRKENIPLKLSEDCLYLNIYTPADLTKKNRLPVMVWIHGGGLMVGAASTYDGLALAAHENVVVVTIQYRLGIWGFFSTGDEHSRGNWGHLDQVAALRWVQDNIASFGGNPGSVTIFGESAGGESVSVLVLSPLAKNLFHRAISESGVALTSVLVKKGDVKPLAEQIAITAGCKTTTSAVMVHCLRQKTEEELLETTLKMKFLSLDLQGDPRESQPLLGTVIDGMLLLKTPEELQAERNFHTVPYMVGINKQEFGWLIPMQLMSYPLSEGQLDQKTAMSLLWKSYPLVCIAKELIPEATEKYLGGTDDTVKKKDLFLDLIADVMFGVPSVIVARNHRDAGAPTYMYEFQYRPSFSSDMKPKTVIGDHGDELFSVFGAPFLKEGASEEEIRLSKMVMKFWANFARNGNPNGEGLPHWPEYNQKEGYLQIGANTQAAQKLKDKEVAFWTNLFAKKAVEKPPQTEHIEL
Protocol: To screen for CES enzymes responsible for the hydrolysis of ETN101 or M1, 50 μL of reaction mixtures containing human cDNA-expressed CES enzymes (CES1b, CES1c, and CES2) at the concentration of 1 mg/mL, 10 μM ETN101, or 1 μM M1 in 0.1 M potassium phosphate buffer were incubated at 37 °C for 0 min or 60 min in triplicate. The reactions were quenched by adding 50 μL of ice-cold acetonitrile containing the internal standard (camptothecin, 10 μg/mL). Following centrifugation at 13,000 rpm for 5 min, a 2 μL aliquot of the supernatant was injected into the LC-MS/MS system.
The mobile phases comprised 0.1% (v/v) formic acid in water (mobile phase A) and 0.1% formic acid (v/v) in acetonitrile (mobile phase B). […] The column and auto-sampler were maintained at 40 °C and 4 °C, respectively. ETN101, M1, and M2 were detected via MRM using ESI in the positive mode. […] Mass Hunter software (Agilent Technologies) was used to control the LC-MS/MS instrument and for data processing.

| SMILES | Percentage remaining (CYP2D6) [%] | Percentage remaining (CES1b) [%] |
| --- | --- | --- |
| NCC(N)C(=O)Nc1ccc(-c2nc3ccccc3s2)cc1 (stereo not shown) [ETN101, 2,3-diamino-N-(4-(benzo[d]thiazol-2-yl)phenyl)propanamide] | 86.9 | 98.6 |
| Nc1ccc(-c2nc3ccccc3s2)cc1 [M1, 2-(4-aminophenyl)benzothiazole] | 83.0 | 99.6 |
